US6605625B2, “Ortho, meta-substituted bisaryl compounds, processes for their preparation, their use as medicaments, and pharmaceutical preparations comprising them” (Aventis Pharma Deutschland GmbH, priority 2000, dated 2003)

What follows are molecules tested against T1, Kv1.5 channels from humans (Homo sapiens, UniProt P22460) (assay: Kv1.5 currents in Xenopus oocytes, 2-microelectrode voltage clamp). Conditions: human Kv1.5 expressed in Xenopus laevis oocytes; voltage jumps to 0 mV and 40 mV, 500 ms; room temperature; inhibition of Kv1.5 control current, Hill equation.
T1 construct: expressed in transfected cells; host or cells: Xenopus laevis oocytes injected with in vitro synthesized RNA
T1 sequence (P22460 whole entry): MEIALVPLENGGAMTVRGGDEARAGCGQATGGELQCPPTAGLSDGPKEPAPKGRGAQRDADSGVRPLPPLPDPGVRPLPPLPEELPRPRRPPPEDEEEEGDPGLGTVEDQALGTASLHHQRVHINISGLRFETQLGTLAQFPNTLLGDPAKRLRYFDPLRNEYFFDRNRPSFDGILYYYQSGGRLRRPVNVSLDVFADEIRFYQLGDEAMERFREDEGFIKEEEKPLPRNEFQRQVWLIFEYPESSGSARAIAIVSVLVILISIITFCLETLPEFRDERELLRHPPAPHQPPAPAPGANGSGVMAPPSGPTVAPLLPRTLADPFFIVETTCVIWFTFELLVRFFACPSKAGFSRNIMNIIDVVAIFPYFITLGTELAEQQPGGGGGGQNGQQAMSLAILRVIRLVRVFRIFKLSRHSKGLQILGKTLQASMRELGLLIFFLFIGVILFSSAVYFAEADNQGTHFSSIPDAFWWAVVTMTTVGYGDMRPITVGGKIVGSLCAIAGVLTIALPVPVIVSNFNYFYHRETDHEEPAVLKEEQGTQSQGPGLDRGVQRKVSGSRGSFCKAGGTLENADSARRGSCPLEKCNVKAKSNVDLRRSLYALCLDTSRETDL
Assay type: cell-based
Method: Kv1.5 channels from humans were expressed in Xenopus oocytes. To this end, oocytes from Xenopus laevis were first isolated and defolliculated. RNA coding for Kv1.5 synthesized in vitro was then injected into these oocytes. After a Kv1.5 protein expression for 1-7 days, Kv1.5 currents were measured on the oocytes using the 2-microelectrode voltage clamp technique. The Kv1.5 channels were in this case as a rule activated using voltage jumps to 0 mV and 40 mV lasting 500 ms. The bath was rinsed using a solution of the following composition: NaCl 96 mM, KCl 2 mM, CaCl2 1.8 mM, MgCl2 1 mM, HEPES 5 mM (titrated with NaOH to pH 7.4). These experiments were carried out at room temperature. The following were employed for data acquisition and analysis: Gene clamp amplifier (Axon Instruments, Foster City, USA) and MacLab D/A converter and software (ADInstruments, Castle Hill, Australia). The substances according to the invention were tested by adding them to the bath solution in different concentrations. The effects of the substances were calculated as the percentage inhibition of the Kv1.5 control current which was obtained when no substance was added to the solution. The data were then extrapolated using the Hill equation in order to determine the inhibition concentrations IC50 for the respective substances.

SMILES | IC50
CC(C)(C)OC(=O)NCc1ccccc1-c1cccc(C(=O)NCc2ccc(F)cc2F)c1 [Example 2] | < 100 µM
CC(C)CCNC(=O)c1cccc(-c2ccccc2CNC(=O)OC(C)(C)C)n1 [Example 5] | 6 µM
CC(C)(C)OC(=O)NCc1ccccc1-c1cncc(C(=O)NCc2ccc(F)cc2F)c1 [Example 8] | < 100 µM
CC(C)C[C@H](NC(=O)c1cccc(-c2ccccc2CNC(=O)OC(C)(C)C)n1)C(N)=O [Example 10] | < 100 µM
CC(C)(C)OC(=O)NCc1ccccc1-c1cccc(C(=O)NCCc2ccccn2)n1 [Example 11] | 10 µM
C[C@H](OC(=O)NCc1ccccc1-c1cccc(C(=O)NCCc2ccccn2)n1)c1ccccc1 [Example 12, (S)-1-(Phenylethyl) {2-[6-(2-pyridin-2-ylethylcarbamoyl)pyridin-2-yl]benzyl}carbamate] | 2.2 µM
Cc1ccc(C(=O)NCCC(C)C)cc1-c1ccccc1CNC(=O)OCc1ccccc1 [Example 13] | 7 µM
O=C(NCc1ccccc1-c1cccc(C(=O)NCc2ccc(F)cc2F)n1)OCc1ccccc1 [Example 16] | < 100 µM
CC(C)C[C@H](NC(=O)c1cccc(-c2ccccc2CNC(=O)O[C@@H](C)c2ccccc2)n1)C(N)=O [Example 18] | 4.2 µM
COc1ccc(NC(=O)c2cccc(-c3ccccc3CNC(=O)O[C@@H](C)c3ccccc3)n2)cc1 [Example 19] | 2 µM
COc1ccc(CC(=O)NCc2ccccc2-c2cccc(C(=O)Nc3ccc(OC)cc3)n2)cc1 [Example 20, 6-(2-{[2-(4-Methoxyphenyl)acetylamino]methyl}phenyl)pyridine-2-carboxylic acid (4-methoxyphenyl)amide] | < 100 µM
COc1ccc(CC(=O)NCc2ccccc2-c2cccc(C(=O)NCc3ccc(F)cc3F)n2)cc1 [Example 21] | 5.7 µM
COc1ccc(CC(=O)NCc2ccccc2-c2cccc(C(=O)NCCc3ccccn3)n2)cc1 [Example 22] | < 100 µM
COc1ccc(CCC(=O)NCc2ccccc2-c2cccc(C(=O)Nc3ccc(OC)cc3)n2)cc1 [Example 23] | < 100 µM
CCOc1ccc(C(=O)NCc2ccccc2-c2cccc(C(=O)Nc3ccc(OC)cc3)n2)cc1 [Example 24] | < 100 µM
COc1ccc(CC(=O)NCc2ccccc2-c2cncc(C(=O)NCc3ccc(F)cc3F)c2)cc1 [Example 26] | 7.4 µM
COc1ccc(CC(=O)NCc2ccccc2-c2cccc(C(=O)NCCC(C)C)c2)cc1 [Example 28] | 4.2 µM
COc1ccc(CC(=O)NCc2ccccc2-c2cc(C(=O)NCCC(C)C)ccc2C)cc1 [Example 29] | 4 µM

Second part, the molecule after the results:

IC50 | SMILES
< 100 µM | CC(C)(C)OC(=O)NCc1ccccc1-c1ccc(Cl)c(C(=O)NCc2ccc(F)cc2F)c1 [Example 3]
6.1 µM | Cc1ccc(C(=O)NCCC(C)C)cc1-c1ccccc1CNC(=O)OC(C)(C)C [Example 4]
< 100 µM | CC(C)(C)OC(=O)NCc1ccccc1-c1cccc(C(=O)NCc2ccc(F)cc2F)n1 [Example 6]
< 100 µM | CC(C)CCNC(=O)c1cncc(-c2ccccc2CNC(=O)OC(C)(C)C)c1 [Example 7]
3 µM | COc1ccc(NC(=O)c2cccc(-c3ccccc3CNC(=O)OC(C)(C)C)n2)cc1 [Example 9]
< 100 µM | CC(C)CCNC(=O)c1cccc(-c2ccccc2CNC(=O)OCc2ccccc2)c1 [Example 14]
< 100 µM | O=C(NCc1ccccc1-c1cccc(C(=O)NCc2ccc(F)cc2F)c1)OCc1ccccc1 [Example 15]
< 100 µM | CC(C)CCNC(=O)c1cccc(-c2ccccc2CNC(=O)OCc2ccccc2)n1 [Example 17]
6 µM | COc1ccc(CC(=O)NCc2ccccc2-c2cccc(C(=O)NCc3ccc(F)cc3F)c2)cc1 [Example 27]
3.1 µM | COc1ccc(CCC(=O)NCc2ccccc2-c2cc(C(=O)NCCC(C)C)ccc2C)cc1 [Example 30]
